This passage reports percent of control binding results from publication PMC7026418, “The kinase polypharmacology landscape of clinical PARP inhibitors” (Scientific Reports, 2020).

Each structure is given as a SMILES string. Read-outs that look alike come from different tables or passages of the source.

Test in all cases: biochemical
Common to all, as to set-up: DiscoveRx KINOMEscan active site-directed competition binding; percent of control kinase bound to immobilised ligand

The target of one experiment is T1, TNK1 (Homo sapiens, UniProt Q13470).
T1 sequence (Q13470 1-666): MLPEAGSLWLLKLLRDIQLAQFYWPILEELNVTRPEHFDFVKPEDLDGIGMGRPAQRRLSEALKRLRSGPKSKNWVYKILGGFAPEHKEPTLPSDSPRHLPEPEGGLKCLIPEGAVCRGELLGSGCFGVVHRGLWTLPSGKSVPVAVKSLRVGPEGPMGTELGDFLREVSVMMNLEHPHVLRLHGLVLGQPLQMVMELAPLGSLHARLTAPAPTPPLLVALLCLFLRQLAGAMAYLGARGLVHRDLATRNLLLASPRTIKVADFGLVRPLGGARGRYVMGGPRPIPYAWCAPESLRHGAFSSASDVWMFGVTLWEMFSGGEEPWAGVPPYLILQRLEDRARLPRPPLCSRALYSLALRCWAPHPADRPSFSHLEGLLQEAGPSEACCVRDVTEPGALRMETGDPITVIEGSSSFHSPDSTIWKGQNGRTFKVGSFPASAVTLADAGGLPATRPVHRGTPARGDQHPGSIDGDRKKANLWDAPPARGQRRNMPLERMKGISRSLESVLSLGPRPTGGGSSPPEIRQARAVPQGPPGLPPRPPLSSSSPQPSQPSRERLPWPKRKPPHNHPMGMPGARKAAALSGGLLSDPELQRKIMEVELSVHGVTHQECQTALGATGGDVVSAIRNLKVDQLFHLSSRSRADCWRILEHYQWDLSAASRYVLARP

The next experiment has as its target T2, MST2 (Homo sapiens, UniProt Q13188).
T2 construct: gene STK3
T2 sequence (Q13188 1-491): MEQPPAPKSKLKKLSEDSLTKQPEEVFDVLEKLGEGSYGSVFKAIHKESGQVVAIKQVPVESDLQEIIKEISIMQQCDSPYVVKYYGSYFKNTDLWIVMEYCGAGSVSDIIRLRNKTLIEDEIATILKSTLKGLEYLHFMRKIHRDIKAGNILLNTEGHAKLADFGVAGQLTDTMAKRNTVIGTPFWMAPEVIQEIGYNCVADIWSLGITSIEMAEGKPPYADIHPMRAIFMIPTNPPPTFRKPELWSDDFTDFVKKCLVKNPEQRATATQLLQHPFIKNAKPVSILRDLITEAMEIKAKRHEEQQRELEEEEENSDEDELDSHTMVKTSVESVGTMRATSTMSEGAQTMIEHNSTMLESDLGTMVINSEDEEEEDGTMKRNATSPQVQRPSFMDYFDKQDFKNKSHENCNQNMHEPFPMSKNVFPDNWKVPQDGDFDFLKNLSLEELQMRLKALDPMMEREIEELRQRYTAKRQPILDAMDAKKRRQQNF

Another experiment concerns the target MAPKAPK2 (Homo sapiens, UniProt P49137).
The target in the next experiment is T3, TAOK1 (Homo sapiens, UniProt Q7L7X3).
T3 sequence (Q7L7X3 1-1001): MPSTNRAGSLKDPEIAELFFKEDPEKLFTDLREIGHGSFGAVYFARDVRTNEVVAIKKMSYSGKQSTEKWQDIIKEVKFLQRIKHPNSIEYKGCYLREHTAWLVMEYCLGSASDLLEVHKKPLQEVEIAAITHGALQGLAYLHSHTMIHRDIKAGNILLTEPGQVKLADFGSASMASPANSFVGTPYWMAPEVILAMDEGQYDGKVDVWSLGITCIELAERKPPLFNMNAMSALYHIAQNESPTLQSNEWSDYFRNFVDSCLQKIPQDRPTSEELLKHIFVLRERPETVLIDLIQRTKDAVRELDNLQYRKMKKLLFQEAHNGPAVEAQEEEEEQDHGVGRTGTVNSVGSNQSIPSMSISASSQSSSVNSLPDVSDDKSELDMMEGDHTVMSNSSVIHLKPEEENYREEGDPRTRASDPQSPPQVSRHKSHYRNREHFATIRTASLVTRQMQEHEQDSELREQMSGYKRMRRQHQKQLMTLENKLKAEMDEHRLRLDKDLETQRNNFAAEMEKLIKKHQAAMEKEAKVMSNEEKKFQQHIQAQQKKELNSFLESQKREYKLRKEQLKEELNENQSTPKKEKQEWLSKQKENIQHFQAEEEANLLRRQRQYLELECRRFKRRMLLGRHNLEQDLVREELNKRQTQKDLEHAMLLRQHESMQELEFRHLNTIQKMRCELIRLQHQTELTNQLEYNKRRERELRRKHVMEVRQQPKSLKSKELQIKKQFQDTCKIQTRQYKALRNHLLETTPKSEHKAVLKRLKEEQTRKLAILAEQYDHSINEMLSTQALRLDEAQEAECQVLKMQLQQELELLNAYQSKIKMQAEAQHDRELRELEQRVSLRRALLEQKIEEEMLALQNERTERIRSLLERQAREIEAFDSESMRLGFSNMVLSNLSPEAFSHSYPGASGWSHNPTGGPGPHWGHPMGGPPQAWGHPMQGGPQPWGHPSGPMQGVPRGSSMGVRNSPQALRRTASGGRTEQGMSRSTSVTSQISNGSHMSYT

The target of a further experiment is T4, MKK7 (Homo sapiens, UniProt O14733).
T4 construct: gene MAP2K7
T4 sequence (O14733 1-419): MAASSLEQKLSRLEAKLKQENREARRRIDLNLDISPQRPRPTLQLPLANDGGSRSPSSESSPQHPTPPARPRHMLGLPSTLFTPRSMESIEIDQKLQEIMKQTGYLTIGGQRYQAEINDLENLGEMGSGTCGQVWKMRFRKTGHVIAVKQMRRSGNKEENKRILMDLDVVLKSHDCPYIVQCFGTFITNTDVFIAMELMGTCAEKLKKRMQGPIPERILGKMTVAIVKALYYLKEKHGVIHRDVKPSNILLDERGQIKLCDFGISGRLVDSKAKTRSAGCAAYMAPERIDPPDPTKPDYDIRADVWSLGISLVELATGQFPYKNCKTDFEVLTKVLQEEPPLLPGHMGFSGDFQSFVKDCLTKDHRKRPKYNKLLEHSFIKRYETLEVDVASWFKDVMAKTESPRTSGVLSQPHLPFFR

Setting [1] is: read-out: Niraparib (MK-4827) / %Ctrl @ 10000nM.
Where [2] appears, read: read-out: Olaparib / %Ctrl @ 10000nM.
The mark [3] stands for this setting: read-out: Rucaparib / %Ctrl @ 10000nM, binding competition, % of control.
[4] abbreviates: read-out: Talazoparib (BMN 673) / %Ctrl @ 10000nM.

Chain of MAPKAPK2 (P49137 whole entry): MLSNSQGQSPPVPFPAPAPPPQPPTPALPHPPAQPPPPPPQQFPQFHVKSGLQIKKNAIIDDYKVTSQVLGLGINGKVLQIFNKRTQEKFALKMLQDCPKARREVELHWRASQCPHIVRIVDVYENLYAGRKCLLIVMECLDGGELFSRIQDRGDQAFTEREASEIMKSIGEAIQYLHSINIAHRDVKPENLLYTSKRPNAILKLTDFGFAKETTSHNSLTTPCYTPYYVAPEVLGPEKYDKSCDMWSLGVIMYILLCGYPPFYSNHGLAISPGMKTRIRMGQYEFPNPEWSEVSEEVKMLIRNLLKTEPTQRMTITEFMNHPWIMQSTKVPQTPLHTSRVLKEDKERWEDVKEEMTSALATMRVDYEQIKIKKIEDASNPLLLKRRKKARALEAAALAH

In the case of `NC(=O)c1cccc2cn(-c3ccc([C@@H]4CCCNC4)cc3)nc12` [Niraparib], the percent of control binding at 10 µM was 56% on TNK1 (setting [1]); 100% on MST2 (setting [1]); 80% at MAPKAPK2 (setting [1]); 80% on TAOK1 (setting [1]); 100% on MKK7 (setting [1]).

Regarding `O=C(c1cc(Cc2n[nH]c(=O)c3ccccc23)ccc1F)N1CCN(C(=O)C2CC2)CC1` [Olaparib], the percent of control binding at 10 µM at TNK1 (setting [2]) was 95%; at MST2 (setting [2]), 96%; at MAPKAPK2 (setting [2]) it was 84%; at TAOK1 (setting [2]) it was 96%; at MKK7 (setting [2]), 98%.

Turning to `CNCc1ccc(-c2[nH]c3cc(F)cc4c3c2CCNC4=O)cc1` [Rucaparib], the percent of control binding at 10 µM was found to be 91% on TNK1 (setting [3]); 76% on MST2 (setting [3]); 100% at MAPKAPK2 (setting [3]); 72% on TAOK1 (setting [3]); 100% on MKK7 (setting [3]).

Turning to `Cn1ncnc1[C@H]1c2n[nH]c(=O)c3cc(F)cc(c23)N[C@@H]1c1ccc(F)cc1` [Talazoparib], the percent of control binding at 10 µM at TNK1 (setting [4]) is 93%; on MST2 (setting [4]), 100%; at MAPKAPK2 (setting [4]) it was 100%; on TAOK1 (setting [4]), 100%; at MKK7 (setting [4]) it was 100%.
